This is an account of results in the NIST ThermoML archive (doi:10.1016/j.jct.2018.05.017).

± gives the expanded uncertainty stated by the source.

For series [1] the following is noted: 101.33 kPa, Liquid, Vibrating tube method.
Series [2] in a line: activity coefficient (dimensionless); of the first substance listed, at infinite dilution; xn = mol fraction of the nth substance listed. The note with it: 101.33 kPa, Liquid, Chromatography, x1 = 0.

The term mass density denotes mass per unit of volume.

As to `CCCCCCn1cc[n+](C)c1C.F[B-](F)(F)F` [1-hexyl-2,3-dimethylimidazolium tetrafluoroborate], the mass density is 1129.8 ± 2.4 kg/m3 in series [1] (313.15 K); 1123.3 ± 2.4 kg/m3 in series [1] (323.15 K); 1116.8 ± 2.4 kg/m3 in series [1] (333.15 K); 1110.3 ± 2.4 kg/m3 in series [1] (343.15 K); 1103.87 ± 2.4 kg/m3 in series [1] (353.15 K).

For `CCCCCCCC` [octane] + CCCCCCn1cc[n+](C)c1C.F[B-](F)(F)F, the activity coefficient in series [2] (313.15 K) came out at 65.1 ± 6.8; in series [2] (323.15 K) it was 64.1 ± 6.8; in series [2] (333.15 K), 62.1 ± 6.5; in series [2] (343.15 K), 61.2 ± 6.4; in series [2] (353.15 K), 60.4 ± 6.4.

On to `CCCCC` [pentane] + CCCCCCn1cc[n+](C)c1C.F[B-](F)(F)F, for which the activity coefficient was determined as 28.9 ± 3 in series [2] (313.15 K); 25.6 ± 2.7 in series [2] (323.15 K); 22.9 ± 2.4 in series [2] (333.15 K); 20.6 ± 2.2 in series [2] (343.15 K); 18.8 ± 2 in series [2] (353.15 K).

`CCCO` [propan-1-ol] + CCCCCCn1cc[n+](C)c1C.F[B-](F)(F)F: the activity coefficient came out at 1.74 ± 0.18 in series [2] (313.15 K); 1.65 ± 0.17 in series [2] (323.15 K); 1.53 ± 0.16 in series [2] (333.15 K); 1.43 ± 0.15 in series [2] (343.15 K); 1.33 ± 0.14 in series [2] (353.15 K).

As to `CC(C)O` [propan-2-ol] + CCCCCCn1cc[n+](C)c1C.F[B-](F)(F)F, the activity coefficient was found to be 1.75 ± 0.18 in series [2] (313.15 K); 1.67 ± 0.17 in series [2] (323.15 K); 1.58 ± 0.16 in series [2] (333.15 K); 1.46 ± 0.15 in series [2] (343.15 K); 1.39 ± 0.14 in series [2] (353.15 K).

As for `ClC(Cl)(Cl)Cl` [tetrachloromethane] + CCCCCCn1cc[n+](C)c1C.F[B-](F)(F)F, the activity coefficient in series [2] (313.15 K) came to 3.5 ± 0.37; in series [2] (323.15 K) it was 3.61 ± 0.38; in series [2] (333.15 K) it was 3.7 ± 0.4; in series [2] (343.15 K) it was 3.72 ± 0.39; in series [2] (353.15 K) it was 3.86 ± 0.41.

As to `C1CCOC1` [tetrahydrofuran] + CCCCCCn1cc[n+](C)c1C.F[B-](F)(F)F, the activity coefficient in series [2] (313.15 K) came to 1.6 ± 0.17; in series [2] (323.15 K) it was 1.62 ± 0.17; in series [2] (333.15 K) it was 1.63 ± 0.17; in series [2] (343.15 K), 1.65 ± 0.17; in series [2] (353.15 K) it was 1.58 ± 0.16.

Regarding `Cc1ccccc1` [toluene] + CCCCCCn1cc[n+](C)c1C.F[B-](F)(F)F, the activity coefficient amounted to 2.21 ± 0.23 in series [2] (313.15 K); 2.26 ± 0.24 in series [2] (323.15 K); 2.31 ± 0.24 in series [2] (333.15 K); 2.35 ± 0.25 in series [2] (343.15 K); 2.4 ± 0.25 in series [2] (353.15 K).

Regarding `ClC(Cl)Cl` [trichloromethane] + CCCCCCn1cc[n+](C)c1C.F[B-](F)(F)F, the activity coefficient in series [2] (313.15 K) is 0.68 ± 0.07; in series [2] (323.15 K), 0.72 ± 0.08; in series [2] (333.15 K) it was 0.77 ± 0.08; in series [2] (343.15 K), 0.82 ± 0.08; in series [2] (353.15 K) it was 0.87 ± 0.09.
